Biological target: T1, mGluR5 receptor (pig) (Sus scrofa, UniProt I3LUI7)
T1 construct: 450 μg of protein from brain homogenate is incubated; from tissue; host or cells: pig brain hemispheres without medulla, cerebellum and pons
Assay: [3H]-MPEP binding in the mGluR5 receptor binding assay (pig brain homogenate)
Details: 5 nM [3H]-MPEP; for IC50: pig brain homogenate
Procedure: I. Method for Determining the Inhibition of [^3H]-MPEP Binding in the mGluR5 Receptor Binding Assay
Pig brain homogenate is produced by homogenisation (Polytron Pt 3000, Kinematica AG, 10,000 revolutions per minute for 90 seconds) of pig brain hemispheres without medulla, cerebellum and pons in a buffer of pH 8.0 (30 mM Hepes, Sigma, order number H3375+1 tablet Complete Roche Diagnostics, order number 1836145 made up to 100 ml) in a ratio of 1:20 (brain weight/volume) and differential centrifugation at 900×g and 40,000×g. 450 μg of protein from brain homogenate is incubated in each case in 250 μl incubation batches in 96-well microtitre plates with 5 nM ^3[H]-MPEP (Tocris, order number R1212) (MPEP=[…]) and the compounds to be investigated ([…]) in the buffer (as above) at room temperature for 60 min.
The batches are then filtered with the assistance of a Brandel Cell Harvester (Brandel, Robotic 9600 model) on Unifilter plates with glass filter mats (Perkin Elmer, order number 6005177) and then washed 3 times with buffer (as above) using 250 μl per sample. The filter plates are then dried for 60 min at 55° C. Then 30 μl of Ultima Gold™ scintillating material (Packard BioScience, order number 6013159) is added per well and after 3 hours the samples are measured using the β counter (Microbeta, Perkin Elmer). Nonspecific binding is determined by the addition of 10 μM MPEP (Tocris, order number 1212).

[1] = 10 μM test compound, 450 μg protein from pig brain homogenate, 60 min, room temperature

T1 sequence (I3LUI7 19-1212): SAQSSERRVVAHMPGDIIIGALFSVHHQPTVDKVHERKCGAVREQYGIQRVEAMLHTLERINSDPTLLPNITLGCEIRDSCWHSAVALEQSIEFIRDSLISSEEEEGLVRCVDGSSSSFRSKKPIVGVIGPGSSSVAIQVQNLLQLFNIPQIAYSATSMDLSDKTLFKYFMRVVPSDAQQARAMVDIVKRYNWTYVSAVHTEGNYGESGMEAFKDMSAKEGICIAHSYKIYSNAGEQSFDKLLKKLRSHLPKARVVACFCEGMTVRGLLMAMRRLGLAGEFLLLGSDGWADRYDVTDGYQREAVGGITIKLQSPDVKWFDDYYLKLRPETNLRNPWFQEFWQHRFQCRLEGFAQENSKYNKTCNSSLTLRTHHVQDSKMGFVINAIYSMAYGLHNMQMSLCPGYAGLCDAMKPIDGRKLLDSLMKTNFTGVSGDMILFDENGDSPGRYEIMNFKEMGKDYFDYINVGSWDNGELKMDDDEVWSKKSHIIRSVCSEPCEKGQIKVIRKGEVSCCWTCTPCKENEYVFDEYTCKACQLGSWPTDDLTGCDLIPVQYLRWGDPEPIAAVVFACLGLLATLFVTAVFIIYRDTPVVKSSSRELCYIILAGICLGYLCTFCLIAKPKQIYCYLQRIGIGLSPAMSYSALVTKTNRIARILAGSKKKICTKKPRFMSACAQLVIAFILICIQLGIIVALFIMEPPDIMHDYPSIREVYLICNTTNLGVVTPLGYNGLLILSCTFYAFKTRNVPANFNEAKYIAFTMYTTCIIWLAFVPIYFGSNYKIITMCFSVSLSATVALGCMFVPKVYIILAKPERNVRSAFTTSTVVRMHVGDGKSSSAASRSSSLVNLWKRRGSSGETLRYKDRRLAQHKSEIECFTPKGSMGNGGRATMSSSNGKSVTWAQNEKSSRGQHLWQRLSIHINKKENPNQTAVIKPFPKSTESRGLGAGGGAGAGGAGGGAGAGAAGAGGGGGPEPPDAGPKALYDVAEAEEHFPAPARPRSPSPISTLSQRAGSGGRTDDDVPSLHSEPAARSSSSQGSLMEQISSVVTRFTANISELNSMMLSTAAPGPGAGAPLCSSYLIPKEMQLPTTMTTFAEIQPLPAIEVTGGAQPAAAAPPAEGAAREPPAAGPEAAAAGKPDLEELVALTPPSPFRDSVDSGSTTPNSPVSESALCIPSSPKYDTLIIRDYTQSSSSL

Structure (SMILES)	IC50 [nM]	mGluR5 receptor (pig) (10 μM) Inhibition (%) [1] [%]	also measured
O=C(C#Cc1ccccc1)N1CCCc2ccccc21 [Example 2, 1-(3-phenyl-propiolyl)-1,2,3,4-tetrahydro-quinoline]	1750	–	–
O=C(C#Cc1ccccc1)N1CCc2ccccc21 [Example 3, 1-(3-phenyl-propiolyl)-2,3-dihydro-indole]	7940	–	–
O=C(C#Cc1ccccc1)N1CCc2ncccc2C1 [Example 4, 6-(3-phenyl-propiolyl)-5,6,7,8-tetrahydro-[1,6]naphthyridine]	2320	–	–
O=C(C#Cc1ccccc1)N1Cc2ccccc2C1 [Example 6, 2-(3-phenyl-propiolyl)-2,3-dihydro-isoindole]	1820	–	–
O=C(C#Cc1ccccn1)N1CCc2ccccc2C1 [Example 7, 2-(3-pyrid-2-yl-propiolyl)-1,2,3,4-tetrahydro-isoquinoline]	8570	–	–
Cc1noc2c1CN(C(=O)C#Cc1ccccc1)CC2 [Example 8, 3-methyl-5-(3-phenyl-propiolyl)-4,5,6,7-tetrahydro-isoxazolo[4,5-c]pyridine]	3550	–	–
O=C(C#Cc1ccccc1)N1CCc2onc(-c3ccccc3)c2C1 [Example 9, 3-phenyl-5-(3-phenyl-propiolyl)-4,5,6,7-tetrahydro-isoxazolo[4,5-c]pyridine]	2360	–	–
O=C(C#Cc1ccccc1)N1CCn2cnnc2C1 [Example 10, 7-(3-phenyl-propiolyl)-5,6,7,8-tetrahydro-[1,2,4]triazolo[4,3-a]pyrazine]	–	–	inhibition at 10 µM [1]: 16%
COc1cc2c(cc1OC)CN(C(=O)C#Cc1cccc(Cl)c1)CC2 [Example 11, 2-(3-(3-chlorophenyl)-propiolyl)-6,7-dimethoxy-1,2,3,4-tetrahydro-isoquinoline]	2720	–	–
O=C(C#Cc1cccc(Cl)c1)N1CCc2cc(O)c(O)cc2C1 [Example 13, 2-(3-(3-chlorophenyl)-propiolyl)-7,6-dihydroxy-1,2,3,4-tetrahydro-isoquinoline]	2540	–	–
COc1ccc2c(c1)CCN(C(=O)C#Cc1ccccc1)C2 [Example 14, 6-methoxy-2-(3-phenyl-propiolyl)-1,2,3,4-tetrahydro-isoquinoline]	3100	–	–
COc1cc2c(cc1O)CN(C(=O)C#Cc1cccc(Cl)c1)CC2 [Example 15, 2-(3-(3-chlorophenyl)-propiolyl)-7-hydroxy-6-methoxy-1,2,3,4-tetrahydro-isoquinoline]	720	–	–
COc1cc2c(cc1O)CCN(C(=O)C#Cc1cccc(Cl)c1)C2 [Example 16, 2-(3-(3-chlorophenyl)-propiolyl)-6-hydroxy-7-methoxy-1,2,3,4-tetrahydro-isoquinoline]	720	–	–
COc1ccc2c(c1)CCN(C(=O)C#Cc1cccc(Cl)c1)C2 [Example 17, 2-(3-(3-chlorophenyl)-propiolyl)-6-methoxy-1,2,3,4-tetrahydro-isoquinoline]	240	–	–
Cc1ccc2c(c1)CCN(C(=O)C#Cc1cccc(Cl)c1)C2 [Example 20, 2-(3-(3-chlorophenyl)-propiolyl)-6-methyl-1,2,3,4-tetrahydro-isoquinoline]	55	–	–
O=C(C#Cc1cccc(Cl)c1)N1CCCc2ccccc2C1 [Example 21, 2-(3-(3-chlorophenyl)-propiolyl)-2,3,4,5-tetrahydro-1H-benzo[c]azepine]	110	–	–
COc1ccc2c(c1)CN(C(=O)C#Cc1cccc(Cl)c1)CC2 [Example 22, 2-(3-(3-chlorophenyl)-propiolyl)-7-methoxy-1,2,3,4-tetrahydro-isoquinoline]	76	–	–
O=C(C#Cc1cccc(Cl)c1)N1CCn2ccnc2C1 [Example 23, 7-(3-(3-chlorophenyl)-propiolyl)-5,6,7,8-tetrahydroimidazo[1,2-a]pyrazine]	320	–	–
Cc1cccc2c1CN(C(=O)C#Cc1cccc(Cl)c1)CC2 [Example 24, 2-(3-(3-chlorophenyl)-propiolyl)-8-methyl-1,2,3,4-tetrahydro-isoquinoline]	4.5	–	–
Cc1ccc2c(c1)CN(C(=O)C#Cc1cccc(Cl)c1)CC2 [Example 25, 2-(3-(3-chlorophenyl)-propiolyl)-7-methyl-1,2,3,4-tetrahydro-isoquinoline]	4.7	–	–
Cc1cccc2c1CCN(C(=O)C#Cc1cccc(Cl)c1)C2 [Example 26, 2-(3-(3-chlorophenyl)-propiolyl)-5-methyl-1,2,3,4-tetrahydro-isoquinoline]	4.7	–	–
O=C(C#Cc1cccc(Cl)c1)N1CCn2cccc2C1 [Example 27, 2-(3-(3-chlorophenyl)-propiolyl)-1,2,3,4-tetrahydropyrrolo[1,2-a]pyrazine]	26	–	–
O=C(C#Cc1cccc(Cl)c1)N1CCc2ccc(O)cc2C1 [Example 28]	87	–	–

Structure (SMILES)	IC50 [nM]	mGluR5 receptor (pig) (10 μM) Inhibition (%) [1] [%]	also measured
COc1cccc2c1CN(C(=O)C#Cc1cccc(Cl)c1)CC2 [Example 29, 2-(3-(3-chlorophenyl)-propiolyl)-8-methoxy-1,2,3,4-tetrahydro-isoquinoline]	8.4	–	–
Cc1cccc2c1C(C)N(C(=O)C#Cc1cccc(Cl)c1)CC2 (stereo not drawn) [Example 31, 2-(3-(3-chlorophenyl)-propiolyl)-1,8-dimethyl-1,2,3,4-tetrahydro-isoquinoline]	2.6	–	–
CC1Cc2ccccc2N1C(=O)C#Cc1ccc(F)cc1F (stereo not drawn) [Example 33, 1-(3-(2,4-difluorophenyl)-propiolyl)-2-methyl-indoline]	–	27	–
COc1cccc(C#CC(=O)N2CCc3ccccc3C2)c1 [Example 34, 2-(3-(3-methoxyphenyl)-propiolyl)-1,2,3,4-tetrahydro-isoquinoline]	–	12	–
Cc1cc(C#CC(=O)N2CCc3ccccc3C2)ccc1F [Example 35, 2-(3-(4-fluoro-3-methylphenyl)-propiolyl)-1,2,3,4-tetrahydro-isoquinoline]	–	77	–
Cc1cc(C#CC(=O)N2c3ccccc3CC2C)ccc1F (stereo not drawn) [Example 36, 1-(3-(4-fluoro-3-methylphenyl)-propiolyl)-2-methyl-indoline]	–	27	–
O=C(C#Cc1ccccc1F)N1CCc2ccccc2C1 [Example 37, 2-(3-(2-fluorophenyl)-propiolyl)-1,2,3,4-tetrahydro-isoquinoline]	–	83	–
CC1Cc2ccccc2N1C(=O)C#Cc1ccccc1F (stereo not drawn) [Example 38, 1-(3-(2-fluorophenyl)-propiolyl)-2-methyl-indoline]	–	49	–
Cc1ccc(C#CC(=O)N2CCc3ccccc3C2)cc1 [Example 39, 2-(3-(4-tolyl)-propiolyl)-1,2,3,4-tetrahydro-isoquinoline]	–	44	–
Cc1ccc(C#CC(=O)N2c3ccccc3CC2C)cc1 (stereo not drawn) [Example 40, 1-(3-(4-tolyl)-propiolyl)-2-methyl-indoline]	–	34	–
O=C(C#Cc1ccc(C(F)(F)F)cc1)N1CCc2ccccc2C1 [Example 41, 2-(3-(4-trifluoromethylphenyl)-propiolyl)-1,2,3,4-tetrahydro-isoquinoline]	–	16	–
O=C(C#Cc1ccccc1)N1CCc2ccccc2C1 [Example 43, 2-(3-phenyl-propiolyl)-1,2,3,4-tetrahydro-isoquinoline]	–	84	–
CC1Cc2ccccc2N1C(=O)C#Cc1ccccc1 (stereo not drawn) [Example 44, 1-(3-phenyl-propiolyl)-2-methyl-indoline]	–	39	–
Cc1cccc(C#CC(=O)N2c3ccccc3CC2C)c1C (stereo not drawn) [Example 46, 1-(3-(2,3-dimethylphenyl)-propiolyl)-2-methyl-indoline]	–	18	–
CC1Cc2ccccc2N1C(=O)C#Cc1ccc(Cl)cc1Cl (stereo not drawn) [Example 50, 1-(3-(2,4-dichlorophenyl)-propiolyl)-2-methyl-indoline]	–	16	–
Cc1cccc(C#CC(=O)N2CCc3ccccc3C2)c1 [Example 51, 2-(3-(3-tolyl)-propiolyl)-1,2,3,4-tetrahydro-isoquinoline]	–	103	–
Cc1cccc(C#CC(=O)N2c3ccccc3CC2C)c1 (stereo not drawn) [Example 52, 1-(3-(3-tolyl)-propiolyl)-2-methyl-indoline]	–	68	–
COc1ccc(C#CC(=O)N2CCc3ccccc3C2)cc1 [Example 53, 2-(3-(4-methoxyphenyl)-propiolyl)-1,2,3,4-tetrahydro-isoquinoline]	–	24	–
COc1ccc(C#CC(=O)N2c3ccccc3CC2C)cc1 (stereo not drawn) [Example 54, 1-(3-(4-methoxyphenyl)-propiolyl)-2-methyl-indoline]	–	46	–
O=C(C#Cc1cccs1)N1CCc2ccccc2C1 [Example 55, 2-(3-(2-thienyl)-propiolyl)-1,2,3,4-tetrahydro-isoquinoline]	–	86	–
CC1Cc2ccccc2N1C(=O)C#Cc1cccs1 (stereo not drawn) [Example 56, 1-(3-(2-thienyl)-propiolyl)-2-methyl-indoline]	–	48	–
Cc1ccc(C#CC(=O)N2CCCc3ccccc32)cc1 [Example 57, 1-(3-(4-tolyl)-propiolyl)-1,2,3,4-tetrahydro-quinoline]	–	18	–
